# Columns and labels:
# [1] = target: T1, P. aeruginosa PBP3 (Pseudomonas aeruginosa, UniProt G3XD46); assay: Bocillin-FL fluorescence polarization competition binding assay, P. aeruginosa PBP3; details: fluorescence polarization competition binding assay using Bocillin-FL
# T1 construct: made in house
# Excerpt: Example I: Experimental Method for Penicillin-Binding Protein Binding Assays with Bocillin-FL Via Fluorescence Polarization
# To determine the ability of boronic acid-based test PBP inhibitors to bind Penicillin Binding Proteins (PBPs), Bocillin-FL (fluorescently-labeled penicillin V; ThermoFisher Scientific) was used in a fluorescence polarization (FP) competition binding assay to assess inhibitor binding to PBP2, PBP3 or PBP4 from Escherichia coli (K12), PBP3 from Pseudomonas aeruginosa (PA01), PBP1a, PBP2 and PBP3 from Acinetobacter baumannii (ATCC 19606), and PBP2 from Neiserria gonorrheae (FA19). PBPs were cloned and purified as described previously (E. coli PBPs, King, D. T, et al., ACS Infectious Diseases 2015, 1, 175-184; P. aeruginosa PBP3, Han et. al., PNAS 2010, 107 (51), 22002-22007; A. baumannii PBPs, Penwell et. al., Antimicrob. Agents Chemother. 2015, 59 (3), 1680-1689; N. gonorrhoeae PBP2, Singh et. al., J Biol. Chem. 2019, 294 (38), 14020-14032). To establish assay conditions for competition binding, enzyme titration/saturation binding experiments were initially performed. Bocillin-FL was prepared at 0.2 μM in a buffer comprised of 50 mM Hepes (pH 8.0), 300 mM NaCl and 5% (v/v) glycerol for reactions with E. coli, P. aeruginosa and N. gonorrhoeae PBPs, and 25 mM Tris (pH 8.0), 200 mM NaCl and 10% (v/v) glycerol and 0.005% (v/v) Tween 20 for reactions with A. baumannii PBPs. Saturation binding was performed by mixing 40 μl of PBP solutions ranging in concentrations from 0-24 μM with 40 μl of the 0.2 μM Bocillin-FL solution, in individual wells of a black 384-well microplate. FP was measured immediately upon mixing (Excitation, 490 nm; Emission, 520 nm; g-factor, 0.96), using a Cytation3 (BioTek) microplate reader and measured continuously for up to 120 minutes. […] The competition binding assay (80 μl final volume) was validated using beta-lactams and PBPs at final concentrations of: 1.5 μM, E. coli PBP3; 0.75 μM, P. aeruginosa PBP3; 1 μM A. baumannii PBP1a; 2.5 μM A. baumannii PBP2; 0.2 μM A. baumannii PBP3; and […] N. gonorrhoeae PBP2. Bocillin-FL was at 0.1 μM (0.05 μM with A. baumannii PBP1a) and beta-lactam concentrations ranged from 0-1000 μM. […] Bocillin-FL was added and the FP immediately measured for up to 60 minutes (90 minutes for E. coli PBP2). […] The beta-lactam potency was reported as the concentration of beta-lactam required to reduce the amount of PBP bound-Bocillin-FL by 50% (EC50). […] Binding assays for boronic acid PBP inhibitors were performed in an identical fashion for the respective PBPs
# [2] = tested on: A. baumannii ATCC 19606; assay: Broth microdilution MIC in CAMHB; format: cell-based; details: Acinetobacter baumannii, ATCC19606; MHB; read-out: Minimum Inhibitory Concentration, A. baumannii ATCC 19606
# Experimental: (§1) Example III: In Vitro Antibacterial Assays
# (§2) To determine the ability of test compounds to inhibit the growth of bacterial strains, classic cell based broth microdilution minimum inhibitory concentration (MIC) assays were employed. MIC assays are performed according to CLSI methods except where otherwise noted (CLSI, 2018 and CLSI, 2019). The reference type strain E. coli ATCC 25922; the wild-type parent strain E. coli AG100; the hyper-permeable E. coli 901C and E. coli D22; and the E. coli AG100A strain lacking the acrAB efflux pump encoding genes were used to determine the ability of the PBP inhibitors to penetrate the outer membrane of gram-negative bacteria and inhibit bacterial growth. […] The P. aeruginosa ATCC 27853 and A. baumannii ATCC 19606, along with the hyper-permeable P. aeruginosa ATCC 35151 and an engineered efflux pump-compromised strain of P. aeruginosa (ΔmexAB-oprM) were used to determine the ability of PBP inhibitors to penetrate the outer membrane of P. aeruginosa and A. baumannii and assess antibacterial activity against these important gram-negative organisms.
# (§3) Briefly, cryo-preserved bacterial cultures of challenge strains are streaked for isolation on appropriate agar medium, in this case cation-adjusted Mueller Hinton agar. Following incubation to allow growth of the colonies, plates are sealed with parafilm and stored refrigerated for up to two weeks. For preparation of assay inoculum and to ensure low variability, at least 5 colonies are picked from the agar plates with an inoculating loop and aseptically transferred to a culture tube containing 3 mL of cation-adjusted Mueller Hinton broth (CAMHB). The broth culture is grown for 3-5 hours at 37° C. with shaking at 200 rpm. Meanwhile, 2-fold serial dilutions of test compounds are conducted in a 96-well plate with a final volume of 75 μL per well at 2-fold the final desired concentration. After the dilution plates are set up the growing cultures are then diluted in a cuvette containing CAMHB and the optical density is measured at 600 nm. The inoculum is diluted such that 75 μL of this culture in CAMHB results in a starting bacterial concentration of 2-8×10^5 CFU/mL when added to the dilution plates. The plates are incubated for 16-20 hours for Enterobacteriaceae and Pseudomonas and 20-24 hours for Acinetobacter at 37° C. The MIC values are read visually as the lowest concentration well with no bacterial growth.
# [3] = tested on: E. coli 901C; assay: Broth microdilution MIC in CAMHB; format: cell-based; details: Escherichia coli; MHB; hyper-permeable E. coli 901C; read-out: Minimum Inhibitory Concentration, E. coli 901C
# Experimental: as §1, §2, §3
# [4] = tested on: E. coli AG100A; assay: Broth microdilution MIC in CAMHB; format: cell-based; details: Escherichia coli, read-out: Minimum Inhibitory Concentration, E. coli AG100A
# Experimental: as §1, §2, §3
# [5] = tested on: E. coli AG100; assay: Broth microdilution MIC in CAMHB; format: cell-based; details: Escherichia coli; MHB; wild-type parent strain E. coli AG100; read-out: Minimum Inhibitory Concentration, E. coli AG100
# Experimental: as §1, §2, §3
# [6] = tested on: E. coli ATCC 25922; assay: Broth microdilution MIC in CAMHB; format: cell-based; details: Escherichia coli, ATCC25922; MHB; E. coli ATCC 25922; read-out: Minimum Inhibitory Concentration, E. coli 25922
# Experimental: as §1, §2, §3
# [7] = tested on: E. coli D22; assay: Broth microdilution MIC in CAMHB; format: cell-based; details: Escherichia coli; MHB; hyper-permeable E. coli D22; read-out: Minimum Inhibitory Concentration, E. coli D22
# Experimental: as §1, §2, §3
# [8] = tested on: K. pneumoniae 848844 producing SHV-11 and KPC-2; assay: Broth microdilution MIC in CAMHB; format: cell-based; details: Klebsiella pneumoniae, read-out: Minimum Inhibitory Concentration, K. pneumoniae 848844
# Experimental: as §1, §2, §3
# [9] = tested on: K. pneumoniae SI-117 producing VIM-1; assay: Broth microdilution MIC in CAMHB; format: cell-based; details: Klebsiella pneumoniae, read-out: Minimum Inhibitory Concentration, K. pneumoniae SI-117
# Experimental: as §1, §2, §3
# [10] = tested on: K. pneumoniae UMM producing SHV-5 and KPC-2; assay: Broth microdilution MIC in CAMHB; format: cell-based; details: Klebsiella pneumoniae, read-out: Minimum Inhibitory Concentration, K. pneumoniae UMM
# Experimental: as §1, §2, §3
# [11] = tested on: P. aeruginosa (ΔmexAB-oprM); assay: Broth microdilution MIC in CAMHB; format: cell-based; details: Pseudomonas aeruginosa, read-out: Minimum Inhibitory Concentration, P. aeruginosa ΔmexAB-OprM
# Experimental: as §1, §2, §3
# [12] = tested on: P. aeruginosa ATCC 27853; assay: Broth microdilution MIC in CAMHB; format: cell-based; details: Pseudomonas aeruginosa, ATCC27853; MHB; read-out: Minimum Inhibitory Concentration, P. aeruginosa ATCC 27853
# Experimental: as §1, §2, §3
# [13] = tested on: P. aeruginosa ATCC 35151; assay: Broth microdilution MIC in CAMHB; format: cell-based; details: Pseudomonas aeruginosa, ATCC35151; MHB; hyper-permeable strain; read-out: Minimum Inhibitory Concentration, P. aeruginosa ATCC 35151
# Experimental: as §1, §2, §3
# T1 sequence (G3XD46 whole entry): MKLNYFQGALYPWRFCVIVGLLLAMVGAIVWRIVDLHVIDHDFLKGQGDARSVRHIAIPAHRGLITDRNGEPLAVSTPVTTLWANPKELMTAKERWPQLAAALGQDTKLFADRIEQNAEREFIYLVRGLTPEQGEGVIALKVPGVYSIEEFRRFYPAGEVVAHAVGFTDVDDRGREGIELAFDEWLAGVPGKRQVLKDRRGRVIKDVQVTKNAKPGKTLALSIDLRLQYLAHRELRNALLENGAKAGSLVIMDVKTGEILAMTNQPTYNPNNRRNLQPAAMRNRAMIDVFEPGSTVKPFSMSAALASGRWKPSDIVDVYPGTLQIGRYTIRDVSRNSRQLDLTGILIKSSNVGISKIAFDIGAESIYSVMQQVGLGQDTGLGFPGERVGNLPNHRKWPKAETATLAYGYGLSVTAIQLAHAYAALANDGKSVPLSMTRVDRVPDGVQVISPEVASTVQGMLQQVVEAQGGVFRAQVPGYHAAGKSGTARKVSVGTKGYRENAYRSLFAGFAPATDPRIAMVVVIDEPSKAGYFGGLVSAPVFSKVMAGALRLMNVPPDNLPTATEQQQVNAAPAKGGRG
SMILES,P. aeruginosa PBP3 Potency [1],MIC [2] [µg/mL],MIC [3] [µg/mL],MIC [4] [µg/mL],MIC [5] [µg/mL],MIC [6] [µg/mL],MIC [7] [µg/mL],MIC [8] [µg/mL],MIC [9] [µg/mL],MIC [10] [µg/mL],MIC [11] [µg/mL],MIC [12] [µg/mL],MIC [13] [µg/mL]
"NCCN1CCN(C(=O)N[C@@H](C(=O)N[C@H]2Cc3cccc(C(=O)O)c3OB2O)c2c(F)cccc2F)C(=O)C1=O (single isomer, unassigned) [Example 223]",D (D represents a potency <10 μM),> 128,> 128,> 128,> 128,> 128,> 128,> 128,8 to 16,2 to 4,32 to 64,> 128,2 to 4
"CCN1CCN(C(=O)N[C@@H](C(=O)N[C@H]2Cc3cccc(C(=O)O)c3OB2O)c2ccc(C(=O)O)c(Cl)c2F)C(=O)C1=O (single isomer, unassigned) [Example 222]",D (D represents a potency <10 μM),> 128,> 128,> 128,> 128,32 to 64,> 128,> 128,2 to 4,< 0.25,32 to 64,> 128,0.5 to 1
"NCCCN1CCN(C(=O)N[C@H](C(=O)N[C@H]2Cc3cccc(C(=O)O)c3OB2O)c2ccc(O)c(F)c2F)C(=O)C1=O (single isomer, unassigned) [Example 239]",C (C represents a potency between 10 and 30 μM),> 128,> 128,> 128,> 128,> 128,> 128,> 128,8 to 16,2 to 4,8 to 16,> 128,2 to 4
"NCCCN1CCN(C(=O)N[C@@H](C(=O)N[C@H]2Cc3cccc(C(=O)O)c3OB2O)c2ccc(O)c(F)c2F)C(=O)C1=O (single isomer, unassigned) [Example 238]",D (D represents a potency <10 μM),> 128,32 to 64,32 to 64,32 to 64,2 to 4,8 to 16,8 to 16,0.5 to 1,< 0.25,2 to 4,32 to 64,< 0.25
